Measured values reported in US10517870B2, “Aryl substituted bicycle heteroaryl compounds” (Bristol-Myers Squibb Company, priority 2015, dated 2019).

Columns and labels:
Format in all cases: cell-based
[1] = biological target: T1, PAR4 (Homo sapiens, UniProt Q96RI0); assay: PAR4 FLIPR assay (calcium mobilization, antagonist activity) in PAR4-expressing HEK293 cells
T1 construct: expressed in transfected cells; host or cells: HEK293 PAR4 Clone 1.2A
T1 sequence (Q96RI0 18-385): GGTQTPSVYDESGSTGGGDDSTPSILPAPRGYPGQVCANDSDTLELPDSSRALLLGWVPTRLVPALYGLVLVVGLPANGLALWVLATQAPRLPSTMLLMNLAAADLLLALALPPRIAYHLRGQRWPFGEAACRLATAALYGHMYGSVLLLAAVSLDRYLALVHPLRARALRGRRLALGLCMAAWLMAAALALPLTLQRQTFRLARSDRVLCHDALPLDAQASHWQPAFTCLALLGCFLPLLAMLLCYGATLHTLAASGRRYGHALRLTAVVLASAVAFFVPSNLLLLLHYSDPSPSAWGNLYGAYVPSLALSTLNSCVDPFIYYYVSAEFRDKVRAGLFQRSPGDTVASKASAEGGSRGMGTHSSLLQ
Source text: The FLIPR assay is an exemplary in vitro assay for measuring the activity of the PAR4 antagonists of the present invention. In this assay, intracellular calcium mobilization is induced in PAR4 expressing cells by a PAR4 agonist and calcium mobilization is monitored.
HEK293 cells stably expressing PAR4 were generated by a standard method of transfection of human PAR4 (F2R23) cDNA expression vector and selected based on PAR4 protein expression or mRNA expression. […] These cells also express endogenous PAR1 and can elicit calcium signal upon stimulation with PAR1 agonist peptide. Therefore, the same cells were also used to determine selectivity against PAR1 and agonist activity for both receptors. Cells from HEK293 PAR4 Clone 1.2A (BMS Arctic ID 383940) were propagated and used for calcium mobilization studies.
FLIPR-based calcium mobilization assay in HEK293 cells was used to measure PAR4 antagonism, agonism, and selectivity against PAR1. The activity of the PAR4 antagonists of the present invention were tested in PAR4 expressing cells by monitoring H-Ala-Phe(4-F)-[…]NH2-induced intracellular calcium mobilization. Counter screens for agonist activity and PAR1 antagonist activity were also performed. Briefly, PAR1/PAR4-expressing HEK293 cells were grown in DMEM (Life Technology, Grand Island, N.Y.) containing 10% heat-inactivated FBS, 1% Penicillin-Streptomycin, 10 μg/mL blasticidin, and 100 μg/mL Zeocin at 37° C. with 5% CO2. Cells were plated overnight prior to the experiment in a black 384-well Purecoat Amine clear bottom plate (Becton Dickinson Biosciences, San Jose, Calif.) at 10,000 cells/well in 30 μL growth medium and incubated in a humidified chamber at 37° C. with 5% CO2 overnight. Prior to compound addition, the cell medium was replaced with 40 μL of IX calcium and magnesium-containing Hank's Balanced Saline Solution (HBSS) (with 20 mM HEPES) and 1:1000 diluted fluorescent calcium indicator (Codex Biosolutions, Gaithersburg, Md.). After a 30 minute incubation period at 37° C., and a further 30 minute incubation and equilibration period at room temperature, 20 μL test compound (diluted in 1×HBSS buffer) was added at various concentrations at 0.17% dimethyl sulfoxide (DMSO) final concentration. Changes in fluorescence intensity were measured using a Functional Drug Screening System (FDSS, Hamamatsu, Japan) to determine agonist activities. The cells were then incubated for 30 minutes at room temperature followed by addition of 20 μL of agonist peptide for antagonist activity measurement. […] Compound potency was derived from 11-point concentration-response curves.

[2] = system: Caski (HPV16+) cells; assay: Cell proliferation/viability assay, Caski cells; details: Homo sapiens, Ca-Ski, 96 h, 4 days
Procedure: (§1) Caski (catalog number CRL-1550), SiHa (catalog number HTB-35), C33A (catalog number HTB-31), Saos-2 (ATCC HTB-85), and Hela (catalog number CCL-2) cells were obtained from the American Type Culture Collection (ATCC). The human cervical carcinoma cell lines Caski. SiHa, Hela and C33A, and the human osteosarcoma cell line Saos-2, and the human keratinocyte cell line HaCaT were cultured in Dulbecco's Modified Eagle Medium (DMEM, Invitrogen catalog number 11965-092) supplemented with 10% fetal bovine serum. The colorectal carcinoma cell line HCT-116 was cultured in Roswell Park Memorial Institute-1640 Medium (Invitrogen catalog number 11875-093) supplemented with 10% FBS. All cells were incubated at 37° C. in a humidified atmosphere with 5% CO2 in air. To establish the SCHPV-18 cell line, one million primary neonatal human foreskin keratinocytes (Invitrogen, catalog no. C-001-5C), cultured in KBM Gold-keratinocvte cell basal medium (Lonza, catalog no. 192060), were electroporated with 5 μg HPV-18 plasmid DNA (ATCC catalog no. 45152D) using the Amaxa Nucleofector II on setting T-007. Cells were co-transfected with 2 μg plasmid pZSGreen1-N1 (Clontech catalog no. 632448) encoding G418 resistance, and cells were selected for four days in 100 μg/ml G418, after which selection was removed. Cells were maintained in culture six months prior to compound testing. Integration of the HPV 18 genome was confirmed by Southern blot. Control cells transfected in parallel with pZSGreen1-N1 alone became senescent four days after selection and the culture could not be expanded. SCHPV-18 cells were maintained in E medium (Fehrmann F, Laimins L A. Human papillomavirus type 31 life cycle: methods for study using tissue culture models. Methods Mol Biol 2005; 292:317-330).
(§2) For proliferation assays, cells were plated in white polystyrene 96-well plates (Costar catalog number 3917) for CellTiter Glo viability assays or 96-well special optics plates (Costar cat #3614) for CellTiter Blue viability assays. Cells were plated in the appropriate growth medium without antibiotics. Two hours after cell plating, a 200× compound stock diluted in DMSO was added to a final concentration of 0.5%. Plates were incubated at 37° C., for 4 days and then cell viability was assessed using either CellTiter Blue (Promega catalog number G8081) or CellTiter Glo (Promega catalog number G7572) according to the manufacturer's instructions. For the CellTiter Blue viability assay, data was collected using the SpectraMax Gemini EM (Molecular Devices) with an excitation wavelength of 530 nm and emission wavelength of 590 nm. For the CellTiter Glo viability assay, data was collected using the Envision Mulitlabel Reader (Perkin Elmer catalog number 2104-0010). To calculate IC50 and EC50 values, percent inhibition curves were fit using a four-parameter logistic formula [y=A+[…]], where A and B denote minimal and maximal % inhibition, respectively, C is the IC50 value, D is the Hill slope, and x represents compound concentration.
(§3) Table C, below, sets out the results obtained employing various compounds of the invention tested for their effects on proliferation of such cells. Caski or SiHa cells, transformed by HPV 16, Hela cells, transformed by HPV 18, or HPV-negative control cell lines (Saos-2 or C33a) were treated with various compounds. […] Unlike the HPV-negative Saos-2 or C33a cell lines, the HPV-transformed cell lines rely on the presence of HPV for their continued proliferation. Therefore, a comparison of IC50 values from HPV-transformed cell lines with IC50 values obtained from HPV-negative cell lines can be used to test for compound selectivity.

[3] = system: HeLa (HPV18+) cells; assay: Cell proliferation/viability assay, HeLa cells; details: Homo sapiens, 96 h, 4 days
Procedure: as §1, §2, §3

[4] = system: SiHa (HPV16+) cells; assay: Cell proliferation/viability assay, SiHa cells; details: Homo sapiens, 96 h, 4 days
Procedure: as §1, §2, §3

[5] = system: Saos-2 (HPV−) cells; assay: Cell proliferation/viability assay, Saos-2 cells; details: Homo sapiens, SAOS-2, 96 h, read-out: Saos-2 (HPV−) Proliferation IC50 (μM)
Procedure: as §1, §2, §3

[6] = system: C33A (HPV−) cells; assay: Cell proliferation/viability assay, C33A cells; details: Homo sapiens, C-33-A, 96 h, read-out: C33A (HPV−) Proliferation IC50 (μM)
Procedure: as §1, §2, §3

SMILES	IC50 [1] [µM]	IC50 [2] [µM]	IC50 [3] [µM]	IC50 [4] [µM]	IC50 [5] [µM]	IC50 [6] [µM]
COc1ccc(-c2cc(C#N)cc3nc(OC(F)F)cnc23)cc1 [Example 1, 3-(difluoromethoxy)-8-(4-methoxyphenyl)quinoxaline-6-carbonitrile]	1.9	2.3	1.5	1.7	7.7	6.9
COc1ccc(-c2cc(Cl)cc3nc(OC(F)F)cnc23)cc1 [Example 2, 7-Chloro-2-(difluoromethoxy)-5-(4-methoxyphenyl)quinoxaline]	2.1	10	9.3	8	> 100	54
C=Cc1cc(-c2ccc(OC)cc2)c2ncc(OC(F)F)nc2c1 [Example 3, 2-(difluoromethoxy)-5-(4-methoxyphenyl)-7-vinylquinoxaline]	0.69	61.9			> 100	> 100
COC(=O)c1cc(-c2ccc(OC)cc2)c2ncc(OC(F)F)nc2c1 [Example 4, Methyl 3-(difluoromethoxy)-8-(4-methoxyphenyl)quinoxaline-6-carboxylate]	1	12.6			> 100	53.4
C#Cc1cc(-c2ccc(OC)cc2)c2ncc(OC(F)F)nc2c1 [Example 5, 2-(difluoromethoxy)-7-ethynyl-5-(4-methoxyphenyl)quinoxaline]	0.25	3.4	3.3	4.5	53.1	42.3
COc1ccc(-c2cc(C(F)(F)F)cc3nc(OC(F)F)cnc23)cc1 [Example 8, 2-(difluoromethoxy)-5-(4-methoxyphenyl)-7-(trifluoromethyl)quinoxaline]	1.5	2.5	2.3	4.3	58.3	> 99.5
Cc1cc(-c2cccc(Cl)c2)c2ncc(OC(F)F)nc2c1 [Example 18, 5-(3-chlorophenyl)-2-(difluoromethoxy)-7-methylquinoxaline]	1.4	13.9	13.2	11.6	> 100	> 100
Cc1cc(-c2ccc(C(F)(F)F)cc2)c2ncc(OC(F)F)nc2c1 [Example 19]	0.8	14.6	29.9	20.5	> 100	> 100
Cc1cc(-c2ccc(OC(F)(F)F)cc2)c2ncc(OC(F)F)nc2c1 [Example 20, 2-(difluoromethoxy)-7-methyl-5-(4-(trifluoromethoxy)phenyl)quinoxaline]	1.2	16.4	45.1	22.1	> 100	83.5
COc1cc(F)cc(-c2cc(C)cc3nc(OC(F)F)cnc23)c1 [Example 21, 2-(difluoromethoxy)-5-(3-fluoro-5-methoxyphenyl)-7-methylquinoxaline]	2.2	13.3	14.7	11.7	> 100	> 100
Cc1cc(-c2ccc(F)c(F)c2)c2ncc(OC(F)F)nc2c1 [Example 22, 2-(difluoromethoxy)-5-(3,4-difluorophenyl)-7-methylquinoxaline]	1	15.9	16.9	12.6	70.6	94.4
Cc1cc(-c2ccc(Cl)cc2Cl)c2ncc(OC(F)F)nc2c1 [Example 23, 5-(2,4-dichlorophenyl)-2-(difluoromethoxy)-7-methylquinoxaline]	0.012	12.9	10.9	9.3	> 100	79.7
Cc1cc(-c2ccc(Cl)c(Cl)c2)c2ncc(OC(F)F)nc2c1 [Example 24, 5-(3,4-dichlorophenyl)-2-(difluoromethoxy)-7-methylquinoxaline]	3.3	12.8	12.7	8.9	> 100	89.4
Cc1cc(-c2cccc(OC(F)(F)F)c2)c2ncc(OC(F)F)nc2c1 [Example 26, 2-(difluoromethoxy)-7-methyl-5-(3-(trifluoromethoxy)phenyl) quinoxaline]	0.4	6	4.6	3.8	> 100	> 100
COc1ccc(-c2cc(Br)cc3nc(OC(F)F)cnc23)cc1 [Example 27, 7-bromo-2-(difluoromethoxy)-5-(4-methoxyphenyl)quinoxaline]	2.6					
